In the supplement of paper PMC10721915:

What was measured:
Assay in all cases: relative cell growth vs untreated control (GI, NCI-DTP normalisation with time-zero) (fraction of control growth); higher = more growth / less inhibition
Conditions in all cases: treatment time: 120 h
ASPC1 = test system: ASPC1
Method: (§1)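 Cancer cell lines in 96-well plates were treated 48 h after seeding with M4076 (ATM inhibitor) and berzosertib (ATR inhibitor), alone or mixed, in 4-fold dilutions for 120 h. Protein was read by sulforhodamine B staining, background-subtracted and normalised NCI-DTP style to untreated control growth. Rows with one concentration equal to 0 are monotherapy.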

DU145 = test system: DU145
Method: as §1

HL60 = test system: HL60
Method: as §1

MDAMB436 = test system: MDAMB436
Method: as §1

COLO205 = test system: COLO205
Method: as §1

BXPC3 = test system: BXPC3
Method: as §1

PANC1 = test system: PANC1
Method: as §1

LOVO = test system: LOVO
Method: as §1

A549 = test system: A549
Method: as §1

MIAPACA2 = test system: MIAPACA2
Method: as §1

COc1cc2ncc3c(c2cc1-c1cn(C)nc1C)n(-c1c(F)cncc1OC)c(=O)n3C [M4076] + CNCc1ccc(-c2cc(-c3nc(-c4ccc(S(=O)(=O)C(C)C)cc4)cnc3N)on2)cc1 [berzosertib]
relative cell growth
Conditions | A549 | ASPC1 | BXPC3 | COLO205 | DU145 | HL60 | LOVO | MDAMB436 | MIAPACA2 | PANC1
concentration of first compound 0.0195 µM, concentration of partner 0 M | 1.18 | 1.2 | 1.17 | 1.18 | 1.09 | 1.14 | 1.25 | 1.1 | 1.08 | 1.27
concentration of first compound 0.0195 µM, concentration of partner 0.2 µM | 0.64 | 0.322 | 0.548 | 0.641 | 1.05 | 1.06 | 0.105 | 0.856 | 0.643 | 0.992
concentration of first compound 0.0781 µM, concentration of partner 0 M | 1.22 | 1.08 | 1.25 | 1.15 | 1.12 | 1.13 | 1.21 | 1.15 | 1.17 | 1.2
concentration of first compound 0.0781 µM, concentration of partner 0.2 µM | 0.574 | 0.194 | 0.643 | 0.668 | 1.09 | 1.12 | 0.209 | 0.625 | 0.542 | 1.36
concentration of first compound 0.313 µM, concentration of partner 0 M | 1.16 | 1.2 | 1.17 | 1.12 | 1.11 | 1.03 | 1.09 | 0.941 | 1.03 | 1.45
concentration of first compound 0.313 µM, concentration of partner 0.2 µM | 0.267 | 0.0757 | 0.481 | 0.373 | 0.774 | 0.788 | 0.0984 | 0.374 | 0.269 | 0.541
concentration of first compound 1 µM, concentration of partner 0 M | 0.924 | 0.84 | 0.952 | 0.959 | 0.98 | 0.862 | 0.971 | 0.753 | 1.08 | 0.96
concentration of first compound 1 µM, concentration of partner 0.0195 µM | 0.89 | 0.803 | 0.987 | 0.916 | 0.893 | 0.88 | 0.763 | 0.817 | 0.891 | 0.764
concentration of first compound 1 µM, concentration of partner 0.0781 µM | 0.431 | 0.418 | 0.78 | 0.37 | 0.862 | 0.707 | 0.508 | 0.574 | 0.439 | 0.526
concentration of first compound 1 µM, concentration of partner 0.313 µM | 0.0877 | -0.0794 | 0.015 | 0.105 | 0.133 | 0.0883 | -0.0419 | 0.148 | 0.061 | 0.0924
concentration of first compound 1 µM, concentration of partner 1.25 µM | 0.00284 | -0.118 | -0.096 | 0.0405 | -0.0604 | 0.00814 | -0.0608 | -0.0222 | 0.0345 | -0.0345
concentration of first compound 1 µM, concentration of partner 5 µM | 0.00285 | -0.115 | -0.0967 | -0.0244 | -0.0855 | -0.0212 | -0.0633 | -0.02 | -0.0126 | -0.0793
concentration of first compound 1.25 µM, concentration of partner 0 M | 1.09 | 0.943 | 1.08 | 1.02 | 1.05 | 0.958 | 1.1 | 0.84 | 1.18 | 1.1
concentration of first compound 1.25 µM, concentration of partner 0.2 µM | 0.153 | 0.0458 | 0.321 | 0.208 | 0.496 | 0.344 | -0.000928 | 0.292 | 0.126 | 0.278
concentration of first compound 5 µM, concentration of partner 0 M | 0.955 | 0.675 | 0.894 | 0.892 | 0.872 | 0.746 | 0.981 | 0.684 | 1.09 | 0.743
concentration of first compound 5 µM, concentration of partner 0.2 µM | 0.11 | 0.0314 | 0.228 | 0.172 | 0.307 | 0.207 | -0.0311 | 0.206 | 0.157 | 0.309
